Data set [1] deals with human ovarian cancer A2780. As to the kind of experiment: Colony growth of A2780 TRCs in 90-Pa fibrin gels. It is filed as cell-based. As for the experimental part: (§1) Salmon fibrinogen and thrombin were purchased from Reagent Proteins (CA, USA). 3D fibrin gels were prepared as described previously[5],[6]. In brief, fibrinogen was diluted into 2 mg mL^−1 with T7 buffer (pH 7.4, 50 mM Tris, 150 mM NaCl). Cells were detached from 2D rigid dishes and cell density was adjusted to 10^4 cells per mL. Fibrinogen and cell solution mixture were made by mixing the same volume of fibrinogen solution and cell solution, resulting in 1 mg mL^−1 fibrinogen and 5000 cells per mL in the mixture fibrin gels. A volume of 50 μL cell/fibrinogen mixture was seeded into each well of 96-well plate and mixed well with pre-added 1 μL thrombin (100 U mL^−1). The cell culture plate was then incubated in 37 °C cell culture incubator for 10 min. Finally, 200 μL of DMEM medium containing 10% FBS and antibiotics was added.

The next data set has as its system human lung cancer A549. Kind of data set: Colony growth of A549 TRCs in 90-Pa fibrin gels. The format is cell-based. As for the experimental part: as §1
In data set [2] the test system is human breast cancer MCF-7. As to the kind of experiment: Colony growth of MCF-7 TRCs in 90-Pa fibrin gels. The format is cell-based. On the procedure:
as §1

A short description of data set [3]: Systemic toxicity in treated mice (body weight, organs). The format is in vivo, C57BL/6 mice. An excerpt: Four- to six-week-old female and male C57BL/6 mice were used in mice experiment. Mice were randomized into different groups. In metastasis experiment, B16-F1 cell spheroids were selected from 3D 90-Pa fibrin gels and pipetted to single cells. These TRCs were harvested and the cell number was counted under microscopy. The cells were then suspended in PBS with appropriate cell density. Thirty thousand TRCs were intravenously injected into the tail vein of each wild-type C57BL/6 mouse. Five days later, inoculated mice were intravenous implanted with 0.022 mg kg^−1 WYC-209, 0.22 mg kg^−1 WYC-209, or 0.1% DMSO every two days. The mice were euthanized and examined for lung tumor formation at day 30. In treated TRCs injected in vivo experiments, B16-F1 cells were seeded into 3D 90-Pa fibrin gels and treated with 10 µM WYC-209 or 0.1% DMSO on day 3, then isolated treated TRCs colonies on day 5 and pipetted into single cell. 30,000 of TRCs were intravenously injected into the tail vein of each wild-type C57BL/6 mouse. No blinding was performed in the mice experiments.
Lung, liver, spleen, bone, stomach, and brain of C57BL/6 mice were fixed by 4% paraformaldehyde then were embedded in paraffin and cut to ~4 µm thick sections by Thermo FINESSE 325. Organ sections were stained by H&E and slides were evaluated for tumor formation by a veterinary pathologist blinded to sample identity.

The subject of data set [4] is B16-F1 melanoma cells / TRCs. Kind of data set: Apoptosis by Annexin-V and PI flow cytometry. It is filed as cell-based, murine. Conditions: 10 μM, 24 h after treatment. On the procedure: For Annexin-V and PI staining to quantify cell apoptosis, treated TRCs were isolated from 3D fibrin gel by using 5 mg mL^−1 Dispase II (Sigma), cells were labeled with FITC-conjugated Annexin-V and PI according to the manufacturer’s instruction (Biolegend). Data were acquired on a BD Cantoll (BD biosciences) and analyzed with FlowJo software. For BrdU staining to quantify cell proliferation, cells were labeled with FITC-conjugated anti-BrdU antibody according to the manufacturer’s instruction (FITC BrdU Flow Kit, BD Biosciences) and then data were acquired on an Accuri C6 (BD Biosciences) and analyzed with BD Accuri C6 software.
Supplementary Figure 12. WYC-209 induces TRC apoptosis at 10 µM. (a)
Murine melanoma B16-F1 cells were seeded into 3D soft fibrin gels and then treated […]
The cells were collected after 24 hours and stained with FITC-conjugated Annexin-V and PI for apoptotic detection by flow cytometry. Apoptotic cells (%) = 100% - (Annexin-V-PI-) %. Mean ± s.e.m.; 3 separate experiments; *** P<0.001 (Student’s t-test). (b) Original images of flow cytometry of (a).
(§2) (1 picture or pasted object on this page, not shown here)
Supplementary Figure 38. WYC-209 induces tumor cell apoptosis. […]
Background: In flow cytometry, cells or beads pass a laser one at a time.

Another data set has as its system Mitf. Kind of data set: Mitf expression by qPCR in TRCs. It is filed as cell-based, murine. Conditions: 0.1–10 µM for 24 h. As for the experimental part:
Total mRNA was isolated from the cells using the Trizol reagent according to the supplier’s instruction (Invitrogen). Reverse transcription (RT) was performed using the TransScript First-strand cDNA Synthesis SuperMix (TransGen), according to the manufacturer’s protocol. Real-time RT-PCR was performed using GoTaq qPCR Master Mix (Promega). The data were normalized against mouse glyceraldehyde 3-phosphate dehydrogenase. The primer sequences are as follows: mouse GAPDH (F: 5′-[…]-3′, R: 5′-[…]-3′); mouse RARα (F: 5′-[…]-3′, R: 5′-[…]-3′); mouse RARβ (F: 5′-[…]-3′, R: 5′-[…]-3′); mouse RARγ (F: 5′-[…]-3′, R:5′-[…]-3′); mouse Sox2 (F: 5′-[…]-3′, R: 5′-[…]-3′); mouse Mitf (F: 5′-[…]-3′, R: 5′-[…]-3′).
Supplementary Figure 39. WYC-209 decreases Sox2 expression but has no effects on Mitf expression. Murine melanoma cells B16-F1 were seeded into 3D soft fibrin gels and then were treated with 0.1% DMSO, 0.1, 1 or 10 µM WYC-209, WYC-209A, or WYC-209B on day 4. mRNA of cells were extracted after 24 hours. Sox2 (a) and Mitf (b) expressions […]
as §2
On the technique in general: In qPCR the cycle at which signal appears reflects the starting amount.

Data set [5] concerns unselected B16-F1 melanoma cells. As to the kind of experiment: Proliferation of unselected B16-F1 cells on 2D rigid dishes. The format is cell-based, murine. Conditions: 10 μM, 48 hours. As for the experimental part: Supplementary Figure 9. WYC-209 detaches adherent melanoma cells on rigid plastic. Murine melanoma cell line B16-F1 were cultured on rigid plastics and treated with 10 μM WYC-209 and observed for 48 hours. Cell nucleus were stained with DAPI. DMSO: medium containing 0.1% DMSO. (a) Representative images of cells stained with DAPI 48 hrs after treatment. Scale bars, 500 μm. (b) Quantitation of cell numbers per view field of B16-F1 treated with WYC-209. Mean ± s.e.m.; n=5 samples; 3 independent experiments; *** P<0.001 (Student’s t-test).
as §2

Usually IC50 stands for the point on the concentration scale where inhibition reaches its midpoint. A high value points to a need for much substance. By inhibition is commonly meant the percentage by which the read-out fell short of the control. Read a low inhibition as a weak effect.

Molecules are shown by their SMILES. Entries after “also recorded” stand apart in the source; their conditions may differ.

On to `CCOC(=O)c1cnc(C#Cc2ccc3c(c2)C(C)(C)CC[S+]3[O-])nc1` (centres unmarked) [WYC-209], for which the IC50 came to 230 nM in data set [1] (0 h, A2780, treated on day 0); 100 nM with human lung cancer A549 (0 h, A549, treated on day 0); 100 nM in data set [2] (MCF7, 0 h, MCF-7, treated on day 0). Moreover, the inhibition at 10 µM in data set [1] (A2780, 10 μM) turned out to be 100%; in the data set with human lung cancer A549 (A549, 10 μM), 100%; in data set [2] (MCF7, MCF-7, 10 μM), 100%. In addition, the “Mouse body weight versus control group” value in data set [3] (0.022 or 0.22 mg kg−1) is recorded as “no effects on mouse weight”. Further, the “Toxic effects in mice / on organs” value in data set [3] (0.022 or 0.22 mg kg−1 i.v. every two days) was “No abnormalities in mouse organs; also recorded: no toxic effects on mouse livers; also recorded: no toxic effects on mouse stomach; also recorded: no observable toxic or necrotic effects or weight loss; also recorded: without showing apparent toxicity”. In data set [4], the “Apoptosis of un-selected melanoma cells or melanoma TRCs” value is recorded as ~ 95%. For the same molecule, the “Change in Mitf expression” value with Mitf was “did not change”. For the same molecule, the “Proliferation of unselected B16-F1 cells on 2D rigid dishes” value in data set [5] was “completely inhibited”.

Source of the values: article PMC5895803, “Inhibition of cancer stem cell like cells by a synthetic retinoid” (Nature Communications, 2018).
